Laboratory results: article PMC7113770 (Antiviral Research, 2018)
Like-named read-outs stand apart in the source and are kept apart here.

Columns and labels:
[1] = tested on: full-length HEV p6 clone; assay: Full-length p6 clone, ORF2 immunofluorescence in Huh7.5; type: cell-based, Hepatitis E virus; conditions: silvestrol 10 nM or RBV, 42 h, added 4 h after transfection
[2] = tested on: HEVp6 replicon (Kernow-C1 p6, gt3); assay: HEVp6 subgenomic replicon; conditions: for IC90: read-out: IC90 (CI)
[3] = tested on: HCV JFH1 subgenomic replicon; assay: HCV JFH1 subgenomic replicon replication in Huh7.5; conditions: for IC50 / IC90: Hepatitis C virus; for IC50: read-out: IC50 (CI); for IC90: read-out: IC90 (CI)
[4] = tested on: HEV Sar55/S17 replicon (gt1); assay: HEV Sar55/S17 subgenomic replicon replication in Huh7.5
[5] = tested on: different HEV constructs; assay: Different HEV subgenomic replicons in Huh7.5; conditions: Hepatitis E virus
[6] = tested on: HepG2/C3A cells; assay: MTT cell viability in HEVCC infection assay; type: cell-based, human; conditions: silvestrol 10, 20, 50 nM, all treatment setups
[7] = 0.3 mg/kg daily intraperitoneal, monitored period
[8] = tested on: Huh7.5 cells; assay: Trypan blue exclusion viable cell counting; type: cell-based, human; conditions: silvestrol 10 nM and 100 nM, 24 h, vs untreated cells
[9] = tested on: hepatocyte-like cells (HLCs); assay: WST cell viability in hepatocyte-like cells; type: cell-based, human; conditions: 10 nM silvestrol for 24 h
[10] = tested on: gt1 HEV (strain Sar-55); type: in vivo; conditions: 0.3 mg/kg daily intraperitoneal, ten or six days, first days of treatment
[11] = tested on: Huh7.5 cells; assay: MTT cell viability assay in transfected Huh7.5; type: cell-based, human
[12] = MTT cell viability assay in transfected Huh7.5; type: cell-based, human; conditions: human, transfected Huh7.5 cells, CC50 (CI), 42 h treatment, Huh7.5, CI 95%
[13] = tested on: Ebola virus; conditions: read-out: IC50 Ebola virus replication; cited from earlier work
[14] = Hepatitis E virus, GT3, Huh7.5, 24 h, read-out: IC50 (CI), 24 h treatment, Huh7.5, CI 95%
[15] = Hepatitis E virus, GT3, Huh7.5, 24 h
[16] = Hepatitis E virus, GT3, Huh7.5, 42 h, read-out: IC50 (CI), 42 h treatment, Huh7.5, CI 95%
[17] = Hepatitis E virus, GT3, Huh7.5, 42 h
[18] = Hepatitis E virus, GT1, Huh7.5, 24 h, read-out: IC50 (CI), 24 h treatment, Huh7.5, CI 95%
[19] = Hepatitis E virus, GT1, Huh7.5, 42 h, read-out: IC50 (CI), 42 h treatment, Huh7.5, CI 95%

Row | SMILES | ORF2 positive cells (immunofluorescence) [1] | IC50 [2, 14] | IC90 [2, 15] | IC50 [2, 16] | IC90 [2, 17] | IC50 ([3]; Huh7.5, 24 h) | IC90 ([3]; Huh7.5, 24 h) | IC50 ([3]; Huh7.5, 42 h) | IC50 [4, 18] | IC50 [4, 19] | other results
1 | NC(=O)c1ncn([C@@H]2O[C@H](CO)[C@@H](O)[C@H]2O)n1 [Ribavirin] | highly reduced | 8160 nM | 244000 nM | 6900 nM | 50400 nM | 12300 nM | 128000 nM | 62500 nM | 43000 nM | 30300 nM | IC50 ([4]; read-out: IC50 (CI), 24 h treatment, Huh7.5, CI 95%): 43100 nM; IC50 ([5]; GT1, Huh7.5, 24 h, read-out: IC50 HEV replication): 8000 to 12000 nM
2 | COC(=O)[C@H]1[C@@H](O)[C@@]2(O)c3c(OC)cc(O[C@@H]4O[C@@H]([C@H](O)CO)CO[C@H]4OC)cc3O[C@@]2(c2ccc(OC)cc2)[C@@H]1c1ccccc1 [Silvestrol, silvestrol] | highly reduced | 4.43 nM | 64.7 nM | 2.9 nM | 27.3 nM | 24.3 nM | 128 nM | 71.1 nM | 6.65 nM | 3.17 nM | cell viability (MTT) [6]: not reduced; body weight [7]: No changes; selectivity index ([2]; 42 h, p6 strain, CC50/IC50): about 8.6; IC50 ([2]; read-out: IC50 (CI), 42 h treatment, Huh7.5, CI 95%): 2.87 nM; IC90 ([3]; Huh7.5, 42 h): 518 nM; susceptibility of HCV reference replicon compared with HEV ([3]; Huh7.5, 24 h): less susceptible; viable cells (trypan blue cell counting) [8]: no significant reductions; IC90 ([4]; Hepatitis E virus, GT1, Huh7.5, 42 h, read-out: IC90 (CI)): 52.8 nM; cytotoxicity (WST assay) in HLCs [9]: without cytotoxicity; HEV RNA in the feces [10]: rapid decline; cytotoxic concentration 50 (CC50) ([11]; 24 h treatment, Huh7.5): did not reach a cytotoxic concentration 50 (CC50); CC50 ([11]; read-out: CC50 (CI), 42 h treatment, Huh7.5, CI 95%): 24.8 nM; CC50 at 42 h [12]: 24.8 nM; IC50 ([5]; Huh7.5, 24 h, read-out: IC50 for the different HEV constructs): 4 to 6.6 nM; IC50 [13]: < 1 nM
